In patent US9957252B2, “Metalloenzyme inhibitor compounds as fungicides” (Dow AgroSciences LLC, priority 2014, dated 2018):
Read-outs that look alike come from different tables or passages of the source.

Experiments:
Format in all cases: in vivo, Mycosphaerella graminicola on wheat plants (variety Yuma)
[1] = test system: standard laboratory SEPTTR isolate (SI SEPTTR); Mycosphaerella graminicola; Anamorph: Septoria tritici; assay: Leaf blotch of wheat fungicidal activity, Type B assay (10% EC formulation in 0.1% Trycol 5941, track sprayer 200 L/ha), standard laboratory isolate; conditions: Zymoseptoria tritici, 72 h, wheat seedlings (Yuma)
Experimental: (§1) Evaluation of Fungicidal Activity: Leaf Blotch of Wheat (Mycosphaerella graminicola; Anamorph: Septoria tritici; Bayer code SEPTTR):
(§2) For Type A assays, technical grades of the experimental fungicides in Table 4 below were dissolved in acetone, and then mixed with nine volumes of water containing 110 ppm Triton X-100. The fungicide solutions were applied onto wheat seedlings using an automated booth sprayer. For Type B assays, emulsifiable concentrate (EC) formulations of technical grades of experimental fungicides in Table 4 below were prepared at 10% (w/v), and then mixed with 150 volumes of 0.1% Trycol 5941. The fungicide solutions were applied onto wheat seedlings using an automated track sprayer at 200 L/ha. All sprayed plants were allowed to air dry prior to further handling.
(§3) Wheat plants (variety Yuma) were grown from seed in a greenhouse in 50% mineral soil/50% soil-less Metro mix until the first leaf was fully emerged, with 7-10 seedlings per pot. Prior to or after application of experimental fungicides, plants were inoculated either with spores of a standard laboratory SEPTTR isolate (SI SEPTTR) or with spores from a SEPTTR field isolate collected from Wellsbourne, England in 2012 (FI SEPTTR). After inoculation, the plants were kept for 3 days at 20° C. in 100% relative humidity (one day in a dark dew chamber followed by two days in a lighted dew chamber). Plants were then transferred to a 20° C. greenhouse for disease development. When disease symptoms were fully expressed on untreated plants, infection levels on treated plants were assessed on a scale of 0 to 100 percent disease severity. Percent disease control was calculated using the ratio of disease severity on treated plants relative to untreated plants.

[2] = Leaf blotch of wheat fungicidal activity, Type B assay (10% EC formulation in 0.1% Trycol 5941, track sprayer 200 L/ha), field isolate; conditions: Zymoseptoria tritici, 72 h, field isolate (Wellsbourne, England 2012), wheat seedlings (Yuma)
Experimental: as §1, §2, §3

[3] = test system: standard laboratory SEPTTR isolate (SI SEPTTR); Mycosphaerella graminicola; Anamorph: Septoria tritici; assay: Leaf blotch of wheat fungicidal activity, Type A assay (technical grade in acetone/water with Triton X-100, booth sprayer), standard laboratory isolate; conditions: Zymoseptoria tritici, 24 h, 1 Day Protectant, wheat seedlings (Yuma), read-out: Disease control, SI SEPTTR Type A Assay (50 ppm) 1DP
Experimental: as §1, §2, §3

[4] = 3 Day Curative, read-out: Disease control, SI SEPTTR Type B Assay (100 g/ha) 3DC
[5] = 3 Day Protectant, read-out: Disease control, SI SEPTTR Type B Assay (100 g/ha) 3DP
[6] = 3 Day Curative, read-out: Disease control, FI SEPTTR Type B Assay (100 g/ha) 3DC
[7] = 3 Day Protectant, read-out: Disease control, FI SEPTTR Type B Assay (100 g/ha) 3DP

CC(C)(C)C(O)(c1cncnc1)c1ccc(-c2ccc(OCC(F)(F)F)cc2)cc1F (stereo not drawn) [Compound 26]
pest or weed control at 100 g/ha [1, 4]: 80 to 100% | pest or weed control at 100 g/ha [1, 5]: 80 to 100% | pest or weed control at 100 g/ha [2, 6]: 80 to 100% | pest or weed control at 100 g/ha [2, 7]: 80 to 100% | pest or weed control at 50 ppm [3]: 80 to 100%

CC(C)(C)C(O)(c1cncnc1)c1ccc(-c2ccc(C(F)(F)F)cc2F)cc1Cl (stereo not drawn) [Compound 30]
pest or weed control at 100 g/ha [1, 4]: 80 to 100% | pest or weed control at 100 g/ha [1, 5]: 80 to 100% | pest or weed control at 100 g/ha [2, 6]: 80 to 100% | pest or weed control at 100 g/ha [2, 7]: 80 to 100% | pest or weed control at 50 ppm [3]: 80 to 100%

CC(C)(C)C(O)(c1ccc(-c2ccc(C3(C#N)CC3)cc2)cc1)c1cncnc1 (stereo not drawn) [Compound 32]
pest or weed control at 100 g/ha [1, 4]: 80 to 100% | pest or weed control at 100 g/ha [1, 5]: 80 to 100% | pest or weed control at 100 g/ha [2, 6]: 60 to 79% | pest or weed control at 100 g/ha [2, 7]: 80 to 100% | pest or weed control at 50 ppm [3]: 80 to 100%
